Assays:
rice [1] = experiment: Test B flooded paddy test; format: in vivo, Oryza sativa; conditions: Flood, 250 g ai/ha; 0 to 100 scale where 0 is no effect and 100 is complete control
Outline: (§1)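 Plants at 2-leaf stage; pots flooded to 3 cm above soil and compound applied directly into paddy water, depth held throughout. After 13 to 15 days in greenhouse, visual rating versus controls on 0 (no effect) to 100 (complete control) scale.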

barnyardgrass [2] = experiment: Test C flooded paddy test; format: in vivo, Echinochloa crus-galli; conditions: Flood, scale 0 to 100 (0 no effect, 100 complete control), 13 to 15 days
Outline: (§2)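 Greenhouse pots flooded to 3 cm above soil at time of treatment received compound via the water, which stayed at that level.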

velvetleaf [3] = experiment: Test A postemergence; format: in vivo, Abutilon theophrasti; conditions: 0 to 100 scale where 0 is no effect and 100 is complete control; for Velvetleaf plant response rating: 125 g ai/ha; for Plant response rating, Velvetleaf: 500 g ai/ha
Outline: (§3)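 Visual 0–100 rating (100 = complete control) taken about 10 d post-treatment relative to untreated checks. Preemergence: directed soil spray on sown loam/sand pots. Postemergence: seedlings 2–10 cm, 1–2 leaf. Non-phytotoxic solvent formulation with surfactant.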

large (Lg) crabgrass [4] = experiment: Test A preemergence; format: in vivo, Digitaria sanguinalis; conditions: for Crabgrass, Large plant response rating (0 to 100 scale): 125 g ai/ha; for Crabgrass, Large plant response rating: 500 g ai/ha, 0 to 100 scale where 0 is no effect and 100 is complete control
Outline: as §3

velvetleaf [5] = experiment: Test A preemergence; format: in vivo, Abutilon theophrasti; conditions: for Velvetleaf plant response rating (0 to 100 scale): 125 g ai/ha; for Velvetleaf plant response rating: 500 g ai/ha, 0 to 100 scale where 0 is no effect and 100 is complete control
Outline: as §3

morningglory [6] = experiment: Test A postemergence; format: in vivo, Ipomoea spp.; conditions: 0 to 100 scale where 0 is no effect and 100 is complete control; for Morningglory plant response rating: 125 g ai/ha; for Plant response rating, Morningglory: 500 g ai/ha
Outline: as §3

pigweed [7] = experiment: Test A postemergence; format: in vivo, Amaranthus retroflexus; conditions: 0 to 100 scale where 0 is no effect and 100 is complete control; for Pigweed plant response rating: 125 g ai/ha; for Plant response rating, Pigweed: 500 g ai/ha
Outline: as §3

Heteranthera limosa = experiment: Test B flooded paddy test; format: in vivo; conditions: Flood, 250 g ai/ha; 0 to 100 scale where 0 is no effect and 100 is complete control
Outline: as §1

sedge, umbrella [8] = experiment: Test B flooded paddy test; format: in vivo, Cyperus difformis; conditions: Flood, 250 g ai/ha; 0 to 100 scale where 0 is no effect and 100 is complete control
Outline: as §1

barnyardgrass [9] = experiment: Test A preemergence; format: in vivo, Echinochloa crus-galli; conditions: for Barnyardgrass plant response rating (0 to 100 scale, 0 is no effect, 100 is complete control): 125 g ai/ha; for Barnyardgrass plant response rating: 500 g ai/ha, 0 to 100 scale where 0 is no effect and 100 is complete control
Outline: as §3

corn [10] = experiment: Test A preemergence; format: in vivo, Zea mays; conditions: for Corn plant response rating (0 to 100 scale): 125 g ai/ha; for Corn plant response rating: 500 g ai/ha, 0 to 100 scale where 0 is no effect and 100 is complete control
Outline: as §3

rice [11] = experiment: Test C flooded paddy test; format: in vivo, Oryza sativa; conditions: Flood, scale 0 to 100 (0 no effect, 100 complete control), 13 to 15 days
Outline: as §2

large (Lg) crabgrass [12] = experiment: Test A postemergence; format: in vivo, Digitaria sanguinalis; conditions: 0 to 100 scale where 0 is no effect and 100 is complete control; for Crabgrass, Large plant response rating: 125 g ai/ha; for Plant response rating, Crabgrass, Large: 500 g ai/ha
Outline: as §3

sedge, umbrella [13] = experiment: Test C flooded paddy test; format: in vivo, Cyperus difformis; conditions: Flood, scale 0 to 100 (0 no effect, 100 complete control), 13 to 15 days
Outline: as §2

barnyardgrass [14] = experiment: Test B flooded paddy test; format: in vivo, Echinochloa crus-galli; conditions: Flood, 250 g ai/ha; 0 to 100 scale where 0 is no effect and 100 is complete control
Outline: as §1

barnyardgrass [15] = experiment: Test A postemergence; format: in vivo, Echinochloa crus-galli; conditions: 0 to 100 scale where 0 is no effect and 100 is complete control; for Barnyardgrass plant response rating: 125 g ai/ha; for Plant response rating, Barnyardgrass: 500 g ai/ha
Outline: as §3

corn [16] = experiment: Test A postemergence; format: in vivo, Zea mays; conditions: 0 to 100 scale where 0 is no effect and 100 is complete control; for Corn plant response rating: 125 g ai/ha; for Plant response rating, Corn: 500 g ai/ha
Outline: as §3

wheat [17] = experiment: Test A preemergence; format: in vivo, Triticum aestivum; conditions: for Wheat plant response rating (0 to 100 scale): 125 g ai/ha; for Wheat plant response rating: 500 g ai/ha, 0 to 100 scale where 0 is no effect and 100 is complete control
Outline: as §3

pigweed [18] = experiment: Test A preemergence; format: in vivo, Amaranthus retroflexus; conditions: for Pigweed plant response rating (0 to 100 scale): 125 g ai/ha; for Pigweed plant response rating: 500 g ai/ha, 0 to 100 scale where 0 is no effect and 100 is complete control
Outline: as §3

ducksalad = experiment: Test C flooded paddy test; format: in vivo, Heteranthera limosa; conditions: Flood, scale 0 to 100 (0 no effect, 100 complete control), 13 to 15 days
From the text: At time of treatment, test pots were flooded to 3 cm above the soil surface, treated by application of test compounds directly to the paddy water, and then maintained at that water depth for the duration of the test. Treated plants and controls were maintained in a greenhouse for 13 to 15 days, after which time all species were compared to controls and visually evaluated. […] A dash (-) response means no test result.

wheat [19] = experiment: Test A postemergence; format: in vivo, Triticum aestivum; conditions: 0 to 100 scale where 0 is no effect and 100 is complete control; for Wheat plant response rating: 125 g ai/ha; for Plant response rating, Wheat: 500 g ai/ha
Outline: as §3

giant foxtail [20] = experiment: Test A postemergence; format: in vivo, Setaria faberii; conditions: 0 to 100 scale where 0 is no effect and 100 is complete control; for Foxtail, Giant plant response rating: 125 g ai/ha; for Plant response rating, Foxtail, Giant: 500 g ai/ha
Outline: as §3

giant foxtail [21] = experiment: Test A preemergence; format: in vivo, Setaria faberii; conditions: for Foxtail, Giant plant response rating (0 to 100 scale): 125 g ai/ha; for Foxtail, Giant plant response rating: 500 g ai/ha, 0 to 100 scale where 0 is no effect and 100 is complete control
Outline: as §3

morningglory [22] = experiment: Test A preemergence; format: in vivo, Ipomoea spp.; conditions: for Morningglory plant response rating (0 to 100 scale): 125 g ai/ha; for Morningglory plant response rating: 500 g ai/ha, 0 to 100 scale where 0 is no effect and 100 is complete control
Outline: as §3

Compound: FC(F)c1cccc(Oc2ncc(Br)cn2)c1-n1cc(I)cn1 [Compound 185]
- Plant response rating, Rice (rice [1]): 0
- Plant response rating, Barnyardgrass (barnyardgrass [2]; 31 g ai/ha): 0
- Plant response rating, Barnyardgrass (barnyardgrass [2]; 62 g ai/ha): 0
- Plant response rating, Barnyardgrass (barnyardgrass [2]; 125 g ai/ha): 0
- Plant response rating, Barnyardgrass (barnyardgrass [2]; 250 g ai/ha): 0
- Velvetleaf plant response rating (velvetleaf [3]): 90
- Plant response rating, Velvetleaf (velvetleaf [3]): 100
- Crabgrass, Large plant response rating (0 to 100 scale) (large (Lg) crabgrass [4]): 90
- Crabgrass, Large plant response rating (large (Lg) crabgrass [4]): 100
- Velvetleaf plant response rating (0 to 100 scale) (velvetleaf [5]): 40
- Velvetleaf plant response rating (velvetleaf [5]): 80
- Morningglory plant response rating (morningglory [6]): 70
- Plant response rating, Morningglory (morningglory [6]): 90
- Pigweed plant response rating (pigweed [7]): 100
- Plant response rating, Pigweed (pigweed [7]): 100
- Plant response rating, Ducksalad (Heteranthera limosa): 95
- Plant response rating, Sedge, Umbrella (sedge, umbrella [8]): 90
- Barnyardgrass plant response rating (0 to 100 scale, 0 is no effect, 100 is complete control) (barnyardgrass [9]): 40
- Barnyardgrass plant response rating (barnyardgrass [9]): 80
- Corn plant response rating (0 to 100 scale) (corn [10]): 0
- Corn plant response rating (corn [10]): 10
- Plant response rating, Rice (rice [11]; 31 g ai/ha): 0
- Plant response rating, Rice (rice [11]; 62 g ai/ha): 0
- Plant response rating, Rice (rice [11]; 125 g ai/ha): 0
- Plant response rating, Rice (rice [11]; 250 g ai/ha): 15
- Crabgrass, Large plant response rating (large (Lg) crabgrass [12]): 60
- Plant response rating, Crabgrass, Large (large (Lg) crabgrass [12]): 90
- Plant response rating, Sedge, Umbrella (sedge, umbrella [13]; 31 g ai/ha): 0
- Plant response rating, Sedge, Umbrella (sedge, umbrella [13]; 62 g ai/ha): 50
- Plant response rating, Sedge, Umbrella (sedge, umbrella [13]; 125 g ai/ha): 50
- Plant response rating, Sedge, Umbrella (sedge, umbrella [13]; 250 g ai/ha): 85
- Plant response rating, Barnyardgrass (barnyardgrass [14]): 0
- Barnyardgrass plant response rating (barnyardgrass [15]): 50
- Plant response rating, Barnyardgrass (barnyardgrass [15]): 80
- Corn plant response rating (corn [16]): 10
- Plant response rating, Corn (corn [16]): 20
- Wheat plant response rating (0 to 100 scale) (wheat [17]): 0
- Wheat plant response rating (wheat [17]): 10
- Pigweed plant response rating (0 to 100 scale) (pigweed [18]): 100
- Pigweed plant response rating (pigweed [18]): 100
- Plant response rating, Ducksalad (ducksalad; 31 g ai/ha): 0
- Plant response rating, Ducksalad (ducksalad; 62 g ai/ha): 0
- Plant response rating, Ducksalad (ducksalad; 125 g ai/ha): 0
- Plant response rating, Ducksalad (ducksalad; 250 g ai/ha): 40
- Wheat plant response rating (wheat [19]): 0
- Plant response rating, Wheat (wheat [19]): 40
- Foxtail, Giant plant response rating (giant foxtail [20]): 50
- Plant response rating, Foxtail, Giant (giant foxtail [20]): 80
- Foxtail, Giant plant response rating (0 to 100 scale) (giant foxtail [21]): 90
- Foxtail, Giant plant response rating (giant foxtail [21]): 100
- Morningglory plant response rating (0 to 100 scale) (morningglory [22]): 10
- Morningglory plant response rating (morningglory [22]): 30

Compound: C#Cc1cnn(-c2ccccc2Oc2ncc(Cl)cn2)c1 [Compound 188]
- Plant response rating, Rice (rice [1]): 0
- Plant response rating, Barnyardgrass (barnyardgrass [2]; 31 g ai/ha): 0
- Plant response rating, Barnyardgrass (barnyardgrass [2]; 62 g ai/ha): 0
- Plant response rating, Barnyardgrass (barnyardgrass [2]; 125 g ai/ha): 0
- Plant response rating, Barnyardgrass (barnyardgrass [2]; 250 g ai/ha): 0
- Velvetleaf plant response rating (velvetleaf [3]): 90
- Plant response rating, Velvetleaf (velvetleaf [3]): 100
- Crabgrass, Large plant response rating (0 to 100 scale) (large (Lg) crabgrass [4]): 90
- Crabgrass, Large plant response rating (large (Lg) crabgrass [4]): 100
- Velvetleaf plant response rating (0 to 100 scale) (velvetleaf [5]): 70
- Velvetleaf plant response rating (velvetleaf [5]): 100
- Morningglory plant response rating (morningglory [6]): 40
- Plant response rating, Morningglory (morningglory [6]): 100
- Pigweed plant response rating (pigweed [7]): 100
- Plant response rating, Pigweed (pigweed [7]): 100
- Plant response rating, Ducksalad (Heteranthera limosa): 90
- Plant response rating, Sedge, Umbrella (sedge, umbrella [8]): 90
- Barnyardgrass plant response rating (0 to 100 scale, 0 is no effect, 100 is complete control) (barnyardgrass [9]): 30
- Barnyardgrass plant response rating (barnyardgrass [9]): 100
- Corn plant response rating (0 to 100 scale) (corn [10]): 0
- Corn plant response rating (corn [10]): 20
- Plant response rating, Rice (rice [11]; 31 g ai/ha): 0
- Plant response rating, Rice (rice [11]; 62 g ai/ha): 0
- Plant response rating, Rice (rice [11]; 125 g ai/ha): 0
- Plant response rating, Rice (rice [11]; 250 g ai/ha): 0
- Crabgrass, Large plant response rating (large (Lg) crabgrass [12]): 50
- Plant response rating, Crabgrass, Large (large (Lg) crabgrass [12]): 80
- Plant response rating, Sedge, Umbrella (sedge, umbrella [13]; 31 g ai/ha): 0
- Plant response rating, Sedge, Umbrella (sedge, umbrella [13]; 62 g ai/ha): 0
- Plant response rating, Sedge, Umbrella (sedge, umbrella [13]; 125 g ai/ha): 50
- Plant response rating, Sedge, Umbrella (sedge, umbrella [13]; 250 g ai/ha): 75
- Plant response rating, Barnyardgrass (barnyardgrass [14]): 30
- Barnyardgrass plant response rating (barnyardgrass [15]): 30
- Plant response rating, Barnyardgrass (barnyardgrass [15]): 90
- Corn plant response rating (corn [16]): 20
- Plant response rating, Corn (corn [16]): 50
- Wheat plant response rating (0 to 100 scale) (wheat [17]): 0
- Wheat plant response rating (wheat [17]): 30
- Pigweed plant response rating (0 to 100 scale) (pigweed [18]): 100
- Pigweed plant response rating (pigweed [18]): 100
- Plant response rating, Ducksalad (ducksalad; 31 g ai/ha): 0
- Plant response rating, Ducksalad (ducksalad; 62 g ai/ha): 0
- Plant response rating, Ducksalad (ducksalad; 125 g ai/ha): 40
- Plant response rating, Ducksalad (ducksalad; 250 g ai/ha): 60
- Wheat plant response rating (wheat [19]): 0
- Plant response rating, Wheat (wheat [19]): 30
- Foxtail, Giant plant response rating (giant foxtail [20]): 60
- Plant response rating, Foxtail, Giant (giant foxtail [20]): 90
- Foxtail, Giant plant response rating (0 to 100 scale) (giant foxtail [21]): 90
- Foxtail, Giant plant response rating (giant foxtail [21]): 100
- Morningglory plant response rating (0 to 100 scale) (morningglory [22]): 10
- Morningglory plant response rating (morningglory [22]): 90

Source: patent US9695155B2, “Herbicidal substituted pyrimidinyloxy benzene compounds” (E. I. DU PONT DE NEMOURS AND COMPANY, priority 2013, dated 2017)
